# Results from US20070122503A1, “USE OF EXTRACTS FROM CIMICIFUGA RACEMOSA AND OF TECTORIGENIN AS AN ESTROGEN-TYPE, ORGANOSELECTIVE MEDICAMENT HAVING NO UTEROTROPHIC EFFECT” (BIONORICA ARZNEIMITTEL GMBH, priority 1998, published 2007).
# Tests used:
# Format in all cases: in vivo, rat
# [1] = test system: ovariectomized Sprague-Dawley rats; assay: Acute experiment, single i.v. injection of Belamcanda sinensis extract: serum LH
# Experimental: All experiments described below were carried out with ovariectomized Sprague-Dawley rats (=ovx rats) having a weight between 240 and 280 g. The onset of the effect of the estradiol-type effect of Belamcanda sinensis extract occurs very quickly. Even after a single i.v. administration of vehicle, estradiol and Belamcanda sinensis extract to ovx rats, pulsatility ceases both under E2 and under Belamcanda sinensis. […] Cremophor is an emulsifier on the basis of polyethoxylated castor oil derivatives. The results are represented in FIG. 2. […] On the day of the experiment, 6 blood samples were taken at 10-min intervals. Immediately following taking of the 6th sample, 62.5 mg of the Belamcanda sinensis extract or 10 μg 17-β-estradiol (E2) or the solvent (5%) cremophor in isotonic NaCl 1 ml), respectively, were injected intravenously, and blood samples were taken for another 2 hours in 10-minute intervals. 6 hours after the intravenous administration, the animals were decapitated, blood was obtained and the uteri removed, weighed and deep-frozen in liquid nitrogen.
# [2] = test system: uterine VEGF, IGF1 and C3 genes, CCO gene; assay: Acute experiment, single i.v. injection: uterine gene expression; conditions: six hours after single i.v. injection; vs controls
# Experimental: All experiments described below were carried out with ovariectomized Sprague-Dawley rats (=ovx rats) having a weight between 240 and 280 g. […] On the day of the experiment, 6 blood samples were taken at 10-min intervals. Immediately following taking of the 6th sample, 62.5 mg of the Belamcanda sinensis extract or 10 μg 17-β-estradiol (E2) or the solvent (5%) cremophor in isotonic NaCl 1 ml), respectively, were injected intravenously, and blood samples were taken for another 2 hours in 10-minute intervals. 6 hours after the intravenous administration, the animals were decapitated, blood was obtained and the uteri removed, weighed and deep-frozen in liquid nitrogen.
# [3] = test system: ovariectomized Sprague-Dawley rats; assay: Subacute test, daily s.c. injection through 7 days (Belamcanda sinensis): body weight, uterus weight, serum LH; conditions: 7 days daily s.c., 62.5 mg extract or 10 μg estradiol
# Experimental: In the blood samples, LH and the estradiol immunoreactivity were determined.
# [4] = test system: uterine VEGF gene, CCO gene; assay: Subacute test 7 days s.c. (Belamcanda sinensis): gene expression in uterine mRNA extract; conditions: after one-week treatment, 10 μg estradiol s.c. daily
# Experimental: (§1) All experiments described below were carried out with ovariectomized Sprague-Dawley rats (=ovx rats) having a weight between 240 and 280 g.
# The effects of repeated administration of estradiol, Belamcanda sinensis extract and vehicle on overall weight, uterus weight, hormone level and gene activation of uterus and bone were examined on ovariectomized rats after daily s.c. application through seven days.
# 8 animals each per test group (24 altogether) were daily injected subcutaneously between 8:00 and 9:00 a.m. with 62.5 mg Belamcanda sinensis extract and 10 μg estradiol or the solvent (cremophor 5%, 1 ml), respectively. 6 h after the last application, the animals were decapitated and from every animal the aorta, the uterus and the left femur head were removed, cleaned, and frozen in liquid nitrogen.
# [5] = test system: collagen-1A1, osteocalcin, IGF1 and TGFβ-mRNA, CCO gene in femur head; assay: Subacute test 7 days s.c. (Belamcanda sinensis): mRNA expression in extracts of the femur head; conditions: 7 days daily s.c.
# Experimental: In extracts of the femur head, the collagen-1A1, osteocalcin, IGF1 and TGFβ-mRNA expression was determined.
# [6] = test system: ovariectomized Sprague-Dawley rats; assay: Repeated s.c. administration of Cimicifuga racemosa over 7 days: uterus weight, vagina, LH; conditions: 7 days s.c. once daily
# Experimental: (§5) 14 days following ovarectomy at the earliest, the animals have the respective test substance injected subcutaneously in a dose of 62.5 mg Cimicifuga racemosa/rat or 8 pg estradiol/rat once daily in the morning over a period of 7 days. Both substances were dissolved in 5% cremophor, the control animals only received the vehicle.
# The LH concentration in the blood of the animals was determined by means of RIA.
# [7] = test system: mRNA for the estrogen receptor; assay: Repeated administration of Cimicifuga racemosa: mRNA expression in preoptic region of the hypothalamus (RT-PCR); conditions: 7 days s.c.; semi-quantitative RT-PCR
# Experimental: Both substances were dissolved in 5% cremophor, the control animals only received the vehicle.
# (§6) Following decapitation of the animals, brains, uterus and femur were prepared for mRNA-recovery. […] The expression of the estrogen-regulated genes in the above identified organs was determined by means of semi-quantitative RT-PCR.
# (§7) As another marker for the estrogenic effect, the activation of mRNA of estrogen-inducible proteins was measured. What was measured here was tissue from uterus, from bone tissue (femur) and from the preoptic region of the hypothalamus.
# [8] = test system: mRNA for collagen 1 and osteocalcin; assay: Repeated administration of Cimicifuga racemosa: mRNA expression in bone (femur) (RT-PCR); conditions: 7 days s.c., semi-quantitative RT-PCR
# Experimental: as §5, §6, §7
# [9] = test system: mRNA for IGF1 and complement factor C3; assay: Repeated administration of Cimicifuga racemosa: mRNA expression in uterus (RT-PCR); conditions: 7 days s.c.; semi-quantitative RT-PCR
# Experimental: as §5, §6
# What was measured here was tissue from uterus, from bone tissue (femur) and from the preoptic region of the hypothalamus.
# [10] = test system: ovariectomized Sprague-Dawley rats; assay: One-time i.v. administration of tectorigenin: LH levels in the blood; conditions: single i.v. 7 mg tectorigenin
# Experimental: as §1
# (§2) Following a single administration of tectorigenin, the time development of influence on the LH levels in the blood and the estradiol-type immunoreactivity were determined. The concentration of tectorigenin in the blood of the animals, determined with the aid of E2-RIA, after 20 min corresponds to about 100 pg equivalent estradiol.
# (§3) Execution: OVX rats had catheters placed in the vena jugularis externa under ether anesthesia 24 hours before the beginning of the experiment, in accordance with the method of Harms and Ojeda (Harms P G; Ojeda S R: A rapid and simple procedure for chronic cannulation of the rat jugular vein. J. Appl. Physiol. (1974) 36: 391-392). The tube end was positioned in a skin pocket in the neck. In order not to have to touch the animals for obtaining the blood samples, the catheter was prolonged with the aid of a silicone tube. Catheter and tube were rinsed with Ringer solution containing 50 IU heparin/ml.
# Blood samples of 100 μl each were drawn from the animals at 10-min intervals, and the withdrawn volume replaced with Ringer/heparin solution. After the 6th sample, 1.0 ml of the respective test solution was applied intravenously. As test solutions there were used: 2% cremophor (=vehicle solution), tectorigenin 7 mg/ml vehicle, 17-β-estradiol 10 μg/ml vehicle. Blood was taken at ten-minute intervals through additional 140 min.
# The blood samples thus obtained were filled into a 0.5 ml Eppendorf reaction vessel containing 10 μl heparin-Losung (5000 IU/ml, Liquemin), centrifuged for 10 min at 10 000*g, and the plasma stored at −20° C. until performance of the radioimmunoassays.
# (§4) The RIAs for LH and Prolaktin are based on antisera, reference and iodisation preparations from NIH (Bethesda, Md., USA). The concentrations of estradiol and of the cross-reactive isoflavones were measured with the aid of an RIA from DPC, Bad Nauheim.
# [11] = One-time i.v. administration of tectorigenin: estradiol-type immunoreactivity in blood (E2-RIA); conditions: after 20 min; single i.v. 7 mg tectorigenin; ovx rats
# Experimental: as §1, §2
# as §3, with “heparin/ml. […]” for “heparin/ml.”
# as §4
structure (smiles),measurement,setting,value
"C[C@]12CC[C@@H]3c4ccc(O)cc4CC[C@H]3[C@@H]1CC[C@@H]2O [E2, 17-β-estradiol]",LH pulsatility,"[1]; 62.5 mg extract or 10 μg E2, ovx rats",ceases
same,serum LH levels,"[1]; 62.5 mg extract or 10 μg E2, prior to and 2 hours after injection, vs previous values and cremophor controls",significant inhibitions
same,expression of the uterine C3 gene,[2],clear increase
same,expression of the uterine IGF1 gene,[2],clear increase
same,expression of the uterine VEGF gene,[2],clear increase
same,average body weights,[3]; vs cremophor,significantly lighter
same,uterus weights,[3]; vs cremophor,more than tripled
same,serum LH levels,[3]; vs cremophor controls,more marked
same,gene expression of VEGF in uterine mRNA extract,[4],149 % of the control value
same,IGF1 mRNA expression in femur head,[5],significantly inhibited
same,TGFβ mRNA expression in femur head,[5],significantly inhibited
same,collagen-1A1 mRNA expression in femur head,[5],significantly inhibited
same,constitutive CCO gene expression in femur head,[5],without having an influence
same,osteocalcin mRNA expression in femur head,[5],significantly inhibited
same,"LH concentrations in the blood, mean values","[6]; 62.5 mg Cimicifuga racemosa/rat or 8 pg estradiol/rat, n=8, RIA",7.83 ng/mL
same,"Uterus weights (wet), mean values","[6]; 62.5 mg Cimicifuga racemosa/rat or 8 pg estradiol/rat, n=8, ovx rats",702.1 mg
same,LH levels compared with vehicle (in words),[6]; ovx rats,lowered significantly
same,hornification of the vaginal epithelium tissue,[6]; ovx rats,quite contrary
same,uterus weight compared with vehicle (in words),[6]; ovx rats,more than three times the weight
same,expression of the mRNA for the estrogen receptor in the preoptic region of the hypothalamus,[7],stimulate
same,expression of the mRNA for osteocalcin in bone tissue,[8],"reduces, in analogy with estradiol"
same,expression of the mRNA for the bone-specific collagen 1 in bone tissue,[8],"reduces, in analogy with estradiol"
same,mRNA for IGF1 in the uterus,[9],increases
same,mRNA for complement factor C3 in the uterus,[9],increases
COc1c(O)cc2occ(-c3ccc(O)cc3)c(=O)c2c1O [tectorigenin],kinetics of the LH reduction up to 60 min following i.v. administration,[10]; compared with 10 μg 17-β-estradiol,precisely correspond to the one of estradiol
same,LH levels in the blood,[10]; ovx rats,rapid LH reduction
same,course of LH after 60 min following i.v. administration,[10]; sampling to 140 min,do not result in further reduction but slowly increases again
same,"concentration of tectorigenin in the blood, determined with E2-RIA",[11],about 100 pg equivalent estradiol
